From US20160220557A1, “USE OF ACETYL-COA CARBOXYLASE INHIBITORS FOR TREATING ACNE VULGARIS” (PFIZER INC., priority 2013, published 2016)
Values joined by “and” are separate entries in the source; they are usually repeats but may differ in a detail not shown here. Equal values may be shown once.

Columns and labels:
sebum production = test: Effect on sebum levels in healthy human volunteers (Sebumeter, Sebutape lipid classes); type: in vivo; settings: 200 mg BID oral, 14 days
Procedure: Otherwise healthy overweight or obese subjects were admitted to the Clinical Research Institute and dosed orally with Example 1 (200 mg BID) or placebo for 14 consecutive days. On two days pre-treatment and days 13 and 14 (post-treatment) of the study, sebum production was assessed by Sebumeter® measurements and sebum was collected for lipid component identification and quantification. In order to prepare the area of the skin where the Sebumeter® measurements and the sebum collection will be performed, the skin surface has to be cleansed from any lipids and debris. The targeted area on the forehead and the cheeks were gently blotted using an oil-absorbing tissue or gauze. After blotting, wipes or gauze pads presoaked in 70% ethanol solution were used to wipe the forehead and cheeks. Following cleansing, the skin was allowed to dry and sebum measurements were made using a clean, calibrated Sebumeter® SM 815 (Courage+Khazaka, Köln, Germany) in accordance with the manufactures directions at 5 minutes and 3 hours post-cleansing. Sebum levels determined by Sebumeter® are expressed as relative change from pre-treatment baseline for subjects treated with placebo and Example 1 and are presented in FIG. 4. The Sebutape® technique was used for sebum collection. At approximately 9 AM, following facial cleansing and the 5 minute post-cleanse sebumeter measurement, 4 Sebutape® strips were applied: 2 patches placed right and left on the forehead cranial of the middle line of the eye and 2 patches on the cheeks caudal of the middle line of the eye. The Sebutape® was peeled from its backing paper using defatted forceps and affixed to the surface with gentle pressure to assure adequate adhesion. Surgical gloves were to be worn by the person handling the tape. After 1 hour, the 4 patches were removed; the 2 left patches and the 2 right patches were placed in acid-washed, Teflon-capped screw-cap vials. Sebum lipid species were quantified from the Sebutape® samples by Metabolon using their TrueMass® technology platform. Analysis of these sebum samples enabled assessment of the effect of Example 1 vs. placebo on individual sebum lipid classes. […] Individual subject level and box plots depicting means with confidence intervals are shown for sebum triglycerides, wax esters, and free fatty acids (FIG. 5).

CYP2C9 = target: T1, CYP2C9 (Homo sapiens, UniProt P11712); test: P450 inhibition in liver microsomes with probe substrates; type: in vitro ADME
T1 construct: from tissue; host or cells: liver microsomes

clinical = settings: human, in vivo, po
ear skin malonyl-CoA = test: Ear skin malonyl-CoA levels in Syrian hamsters; type: in vivo, Syrian hamster; settings: topical 100 mg/ml (5 ul/ear), single dose, one hour after treatment
Procedure: Male Syrian gold Hamster at ˜10 weeks were maintained adlibitum on standard hamster chow and water. Example 3 for topical delivery was prepared as a solution in a vehicle consisting of 70:30 (Ethanol:propylene glycol) at a concentration of 100 mg/ml. Topical administration of a single dose (5 ul/ear) was applied to hamster ears with a pipette (2-10 ul) tip adhering to 2 minute intervals following the dosing order. The dosing timing allowed for the formulation to spread evenly over an approximate 1 sq cm area and absorb/dry prior to returning the animal to the cage. […] One hour after dose administration animals were sacrificed by CO2 asphyxiation.
Briefly, ear skin samples were prepared for malonyl-CoA analysis in the following manner. One 8 mm distal biopsy punch (using a 8 mm diameter Sklar Tru-punch—Sklar Instruments) (2 per animal) was taken just above the anatomical “V” in the aural cartilage to normalize sample area. The punch was then split into 2 layers (anterior and posterior). […]
Frozen tissues were homogenized in 1 mL of 5% ice cold trichloroacetic acid using a polytron in a 2 mL polypropylene centrifuge tube. […] Tissue malonyl-CoA levels were determined by LCMS by the Metabolomics Laboratory Sanford-Burnham Medical Research Institute (Orlando, […]). Hamster ear skin malonyl-CoA levels were expressed as the percent of the vehicle control and are plotted in FIG. 6.

T1 sequence (P11712 whole entry): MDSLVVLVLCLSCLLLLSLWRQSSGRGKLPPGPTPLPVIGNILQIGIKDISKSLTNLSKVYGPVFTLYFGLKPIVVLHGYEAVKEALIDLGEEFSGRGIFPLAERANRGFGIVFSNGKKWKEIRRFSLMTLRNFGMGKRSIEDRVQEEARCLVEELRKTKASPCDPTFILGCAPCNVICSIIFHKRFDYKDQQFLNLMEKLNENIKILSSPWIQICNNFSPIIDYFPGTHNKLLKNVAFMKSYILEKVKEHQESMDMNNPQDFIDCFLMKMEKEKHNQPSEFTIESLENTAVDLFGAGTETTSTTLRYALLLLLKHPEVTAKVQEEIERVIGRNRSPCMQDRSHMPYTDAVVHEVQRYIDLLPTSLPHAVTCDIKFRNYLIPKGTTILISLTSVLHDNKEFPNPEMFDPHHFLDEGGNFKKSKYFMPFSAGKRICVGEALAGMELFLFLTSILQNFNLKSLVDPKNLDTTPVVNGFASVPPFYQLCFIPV

Row | SMILES | sebum free cholesterol change relative to PBO (sebum production) | sebum squalene levels, increase relative to PBO (sebum production) | reduction of sebum production by Sebumeter from baseline (sebum production; PBO adjusted) | reduction of sebum free fatty acids relative to placebo (sebum production; Sebutape) | reduction of sebum wax esters relative to placebo (sebum production; Sebutape) | decrease of sebum triglycerides (sebum production; Sebutape, PBO adjusted) | levels of sebum free fatty acids (in words) (sebum production; vs. placebo) | levels of sebum wax esters (in words) (sebum production; vs. placebo) | IC50 (CYP2C9) | half-life (clinical) | suppression of hamster ear skin malonyl-CoA relative to vehicle (ear skin malonyl-CoA)
1 | Cc1nc2ccc(C(=O)N3CCC4(CC3)CC(=O)c3c(cnn3C(C)C)C4)cc2[nH]1 [Example 1, 1-isopropyl-1′-(2-methyl-1H-benzo[d]imidazole-5-carbonyl)-4,6-dihydrospiro[indazole-5,4′-piperidin]-7(1H)-one] | no change | 2.6 fold | 49% and > 49% | approximately 49% | ~53% | 66% | reduced | reduced | > 30 µM | 10 to 13 h | 
2 | CC(C)n1ncc2c1C(=O)CC1(CCN(C(=O)c3ccc4ccc(N)nc4c3)CC1)C2 [Example 3, 1′-(2-aminoquinoline-7-carbonyl)-1-isopropyl-4,6-dihydrospiro[indazole-5,4′-piperidin]-7(1H)-one] |  |  |  |  |  |  |  |  |  |  | 87%
